The source of these data is patent US4748116A, “Peptide substrates for determination of protease activity” (KabiVitrum AB, priority 1980, dated 1988).

Structures can show the parent of a compound that is named as a salt.

The conditions of this series: pH 8.3.

With `CC(C)C[C@H](NC(=O)[C@@H](NC(=O)OC(C)(C)C)C(C)C)C(=O)N[C@@H](CCCCN)C(=O)Nc1ccc2c(=O)[nH][nH]c(=O)c2c1` [XXI, Boc--Val--Leu--Lys--Isl.HCl], the “stability of substrate” value is on record as “very stable”.
